This note sets out measurements from PubChem BioAssay AID652222 (The Scripps Research Institute Molecular Screening Center, 2013).

The structures appear in SMILES notation.

The experiment addresses Serine/threonine-protein phosphatase PP1-alpha catalytic subunit (Homo sapiens) (UniProt P62136). As to the kind of experiment: dose-dependent PP1alpha phosphatase inhibition – biochemical, fluorescence, OMFP substrate, set 1, dose response (AID 652222). The conditions noted are these: purified PP1alpha, OMFP dephosphorylation.

Serine/threonine-protein phosphatase PP1-alpha catalytic subunit (Homo sapiens), sequence (P62136 whole entry, looked up): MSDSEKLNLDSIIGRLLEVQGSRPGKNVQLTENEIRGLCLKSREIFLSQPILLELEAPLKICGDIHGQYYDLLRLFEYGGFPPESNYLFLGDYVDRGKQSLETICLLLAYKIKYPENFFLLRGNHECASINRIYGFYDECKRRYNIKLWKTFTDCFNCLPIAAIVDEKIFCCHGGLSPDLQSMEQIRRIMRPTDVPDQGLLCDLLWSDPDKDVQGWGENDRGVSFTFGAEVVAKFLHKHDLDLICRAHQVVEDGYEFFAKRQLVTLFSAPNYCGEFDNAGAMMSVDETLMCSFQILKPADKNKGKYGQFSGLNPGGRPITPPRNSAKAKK

As for `Cc1ccnc(C(c2ccc3cccnc3c2O)N2CCN(C)CC2)c1` (stereo not drawn), the IC50 – broadly, the concentration that inhibits the measured activity by half – is 1800 nM.

Turning to `CC(C)(C)OC(=O)N1CCN(C(c2ccccn2)c2cc(Cl)c3cccnc3c2O)CC1` (stereo not drawn), the IC50 was 1370 nM.

With `Oc1c(C(c2ccccn2)N2CCC(Cc3ccccc3)CC2)cc(Cl)c2cccnc12` (stereo not drawn), the IC50 was 1230 nM.

For `Cc1cccc(C(c2ccc3cccnc3c2O)N2CCN(C)CC2)n1` (stereo not drawn), the IC50 is 2520 nM.

With `Cc1ccc2ccc(C(c3ccccn3)N3CCN(C)CC3)c(O)c2n1` (stereo not drawn), the IC50 is 1440 nM.

As to `Oc1c(C(c2ccccn2)N2CCN(c3ccccc3F)CC2)cc(Cl)c2cccnc12` (stereo not drawn), the IC50 is 2410 nM.

For `Cc1cccnc1C(c1ccc2cccnc2c1O)N1CCN(C)CC1` (stereo not drawn), the IC50 was 1480 nM.

Take `COc1ccnc(C(c2ccc3cccnc3c2O)N2CCN(C)CC2)c1` (stereo not drawn): the IC50 is 1260 nM.

In the case of `Oc1c(C(c2ccccn2)N2CCCC2)ccc2cccnc12` (stereo not drawn), the IC50 is 1410 nM.

Turning to `COc1ccc(C(c2ccc3cccnc3c2O)N2CCN(C)CC2)nc1` (stereo not drawn), the IC50 was 1690 nM.

As to `CN1CCN(C(c2ccc(C(F)(F)F)cn2)c2ccc3cccnc3c2O)CC1` (stereo not drawn), the IC50 was 836 nM.

On to `CN1CCC(NC(c2ccccn2)c2ccc3cccnc3c2O)CC1` (stereo not drawn), for which the IC50 is 2500 nM.

Take `CN1CCN(C(c2ccc3cccnc3c2O)c2ncccc2C(F)(F)F)CC1` (stereo not drawn): the IC50 was 1120 nM.

Consider `CC1CCN(C(c2ccccn2)c2cc(Cl)c3cccnc3c2O)CC1` (stereo not drawn), for which the IC50 was 1450 nM.

`CN1CCN(C(c2ncccn2)c2ccc3cccnc3c2O)CC1` (stereo not drawn): the IC50 was 2690 nM.

Take `Oc1c(C(NC2CCCCC2)c2ccccn2)ccc2cccnc12` (stereo not drawn): the IC50 is 1360 nM.

With `COc1cccc(C(c2ccc3cccnc3c2O)N2CCN(C)CC2)n1` (stereo not drawn), the IC50 was 8870 nM.

In the case of `Cc1ccc(C(c2ccc3cccnc3c2O)N2CCN(C)CC2)nc1` (stereo not drawn), the IC50 is 1340 nM.
